Experiments:
PTPN2 = biological target: T1, PTPN2 (Homo sapiens, UniProt P17706); assay: Phosphatase activity assay (DiFMUP substrate); format: biochemical; details: value bin printed in column head
T1 sequence (P17706 1-415): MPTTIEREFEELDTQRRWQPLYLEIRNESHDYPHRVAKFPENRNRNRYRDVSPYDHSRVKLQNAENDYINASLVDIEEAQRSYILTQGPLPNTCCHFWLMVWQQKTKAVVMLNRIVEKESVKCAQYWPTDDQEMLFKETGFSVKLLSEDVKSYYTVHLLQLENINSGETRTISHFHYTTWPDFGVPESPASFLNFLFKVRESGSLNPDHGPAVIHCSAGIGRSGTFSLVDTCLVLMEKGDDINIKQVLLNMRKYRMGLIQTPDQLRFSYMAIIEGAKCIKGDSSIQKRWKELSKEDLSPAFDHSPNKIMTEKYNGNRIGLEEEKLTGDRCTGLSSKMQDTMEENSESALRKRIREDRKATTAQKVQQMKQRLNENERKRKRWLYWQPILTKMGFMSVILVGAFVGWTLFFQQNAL
Method: (§1) The selectivity and potency of a small molecule PTPN2 inhibitor as provided herein against one or more protein tyrosine phosphatase (PTP) enzymes, and specifically against PTPN2, is assessed in various ways. The one or more PTP enzymes comprise Mycobacterium protein tyrosine phosphatase A (mPTPA), Mycobacterium protein tyrosine phosphatase B (mPTPB), PTPN1 (i.e., PTP1B), PTPN2 (i.e., TC-PTP), PTPN22 (i.e., LYP), SHP-1, SHP-2, FAP-1, Meg2, HePTP, Laforin, VHX, VHR, LMWPTP, Cdc14A, LAR, CD45, PTPRG, a fragment thereof, a variant thereof, and a combination thereof. Selectivity and potency of a small molecule PTPN2 inhibitor is evaluated using a PTP activity inhibition assay. The assay is performed using a buffer comprising 50 mM HEPES buffer pH 7.5, 150 mM NaCl, 0.5 mM EDTA, 1 mM DTT, 0.001% Tween-20.
(§2) The assay is performed using a phosphated substrate, e.g., 10 mM 6,8-Difluoro-4-Methylumbelliferyl Phosphate (DIFMUP) that is stored at −20° C. Alternatively or in addition to, the assay is performed using other phosphated substrate (e.g., fluorescein diphosphate). Each PTP enzyme is diluted in the assay buffer
(§3) The assay can be carried out at room temperature in multiplate format, e.g., using 384 well plates. A small molecule PTPN2 inhibitor dissolved in DMSO at one of 10 concentrations from a serial dilution or DMSO alone for control is added to each well. A mixture of the assay buffer comprising PTP enzyme (e.g., 0.025 ng/ul PTPN2) is added to each well and mixed for approximately 2 minutes. The reaction is initiated by adding DiFMUP diluted in the assay buffer to a final concentration of approximately 45 µM DiFMUP in PTPN2 assay. For each PTP enzyme, DiFMUP is added at the Km (Michaelis constant) of the enzyme that had been independently determined. The phosphatase activity of the PTP enzyme is assessed by monitoring appearance of a fluorescent product (6,8-difluoro-7-hydroxyl-4-coumarin (DiFMU) from DiFMUP) continuously for about 15 to 30 minutes, using the INFINITE M1000Pro plate reader (Tecan) with excitation at 360 nm and emission at 450 nm (cutoff filter at 435 nm) for DiFMU. Each assay is performed at least in duplicate. The rate (e.g., the initial rate) of DiFMU formation is plotted against the concentration of the small molecule PTPN2 inhibitor, and the data is fitted (e.g., using a 4-parameter equation) to determine the inflection point of the fit as the IC50 of the small molecule PTPN2 inhibitor for a specific enzyme. Utilizing this assay, the ability of the compounds in Table 1 to inhibit PTPN2 and PTP1B has been assessed. Table 3 summarizes the IC50 values.

PTP1B = biological target: T2, PTP1B (Homo sapiens, UniProt P18031); assay: Phosphatase activity assay (DiFMUP substrate); format: biochemical; details: value bin printed in column head
T2 sequence (P18031 1-435): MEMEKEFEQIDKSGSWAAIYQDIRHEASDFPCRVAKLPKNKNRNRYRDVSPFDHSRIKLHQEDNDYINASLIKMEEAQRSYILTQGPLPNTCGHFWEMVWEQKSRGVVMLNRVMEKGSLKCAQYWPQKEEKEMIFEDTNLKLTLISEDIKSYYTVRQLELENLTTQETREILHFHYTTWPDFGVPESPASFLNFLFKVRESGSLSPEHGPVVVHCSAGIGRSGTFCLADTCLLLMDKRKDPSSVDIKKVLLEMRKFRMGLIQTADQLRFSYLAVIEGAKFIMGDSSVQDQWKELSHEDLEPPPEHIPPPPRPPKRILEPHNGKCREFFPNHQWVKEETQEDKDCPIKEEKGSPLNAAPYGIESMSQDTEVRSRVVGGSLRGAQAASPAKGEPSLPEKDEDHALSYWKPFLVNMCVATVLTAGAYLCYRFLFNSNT
Method: as §1, §2, §3

| Structure (SMILES) | IC50 (PTPN2) | IC50 (PTP1B) |
| --- | --- | --- |
| CC(OC(=O)C(C)C)OC(=O)N1CC(c2ccc(O)c(N3CC(=O)NS3(=O)=O)c2F)=C[C@H]1CCC1CC1 (mixture of isomers) [Compound 111, 1-(isobutyryloxy)ethyl (2R)-2-(2-cyclopropylethyl)-4-(3-(1,1-dioxido-4-oxo-1,2,5-thiadiazolidin-2-yl)-2-fluoro-4-hydroxyphenyl)-2,5-dihydro-1H-pyrrole-1-carboxylate] | ≤ 1000 nM | ≤ 1000 nM |
| CC(C)CC[C@H]1C=C(c2ccc(O)c(N3CC(=O)NS3(=O)=O)c2F)CN1 [Compound 145, (S)-5-(2-fluoro-6-hydroxy-3-(5-isopentyl-2,5-dihydro-1H-pyrrol-3-yl)phenyl)-1,2,5-thiadiazolidin-3-one 1,1-dioxide] | ≤ 1000 nM | ≤ 1000 nM |
| O=C1CN(c2c(O)ccc(CC3CCCNC3)c2F)S(=O)(=O)N1 (stereo not drawn) [Compound 122, 5-(2-fluoro-6-hydroxy-3-(piperidin-3-ylmethyl)phenyl)-1,2,5-thiadiazolidin-3-one 1,1-dioxide] | ≤ 1000 nM | ≤ 1000 nM |
| O=C1CN(c2c(O)ccc(CC3CCNC3)c2F)S(=O)(=O)N1 (stereo not drawn) [Compound 141, 5-(2-fluoro-6-hydroxy-3-(pyrrolidin-3-ylmethyl)phenyl)-1,2,5-thiadiazolidin-3-one 1,1-dioxide] | ≤ 1000 nM | ≤ 1000 nM |
| CCC[C@@H]1C=C(c2ccc(O)c(N3CC(=O)NS3(=O)=O)c2F)CN1 [Compound 114, (R)-5-(2-fluoro-6-hydroxy-3-(5-propyl-2,5-dihydro-1H-pyrrol-3-yl)phenyl)-1,2,5-thiadiazolidin-3-one 1,1-dioxide] | ≤ 1000 nM | ≤ 1000 nM |
| CC1(CCC2C=C(c3ccc(O)c(N4CC(=O)NS4(=O)=O)c3F)CN2)CC1 (stereo not drawn) [Compound 104, 5-(2-fluoro-6-hydroxy-3-(5-(2-(1-methylcyclopropyl)ethyl)-2,5-dihydro-1H-pyrrol-3-yl)phenyl)-1,2,5-thiadiazolidin-3-one 1,1-dioxide] | ≤ 1000 nM | ≤ 1000 nM |
| CCC[C@H]1C=C(c2ccc(O)c(N3CC(=O)NS3(=O)=O)c2F)CN1 [Compound 129, (S)-5-(2-fluoro-6-hydroxy-3-(5-propyl-2,5-dihydro-1H-pyrrol-3-yl)phenyl)-1,2,5-thiadiazolidin-3-one 1,1-dioxide] | ≤ 1000 nM | ≤ 1000 nM |
| CC(=O)OC(C)OC(=O)N1CC(c2ccc(O)c(N3CC(=O)NS3(=O)=O)c2F)=C[C@H]1CCC1CC1 (stereo partly drawn) [Compound 121, 1-acetoxyethyl (2R)-2-(2-cyclopropylethyl)-4-(3-(1,1-dioxido-4-oxo-1,2,5-thiadiazolidin-2-yl)-2-fluoro-4-hydroxyphenyl)-2,5-dihydro-1H-pyrrole-1-carboxylate] | ≤ 1000 nM | ≤ 1000 nM |
| O=C1CN(c2c(O)ccc(C3=CCC(CO)C3)c2F)S(=O)(=O)N1 (stereo not drawn) [Compound 135, 5-(2-fluoro-6-hydroxy-3-(4-(hydroxymethyl)cyclopent-1-en-1-yl)phenyl)-1,2,5-thiadiazolidin-3-one 1,1-dioxide] | ≤ 1000 nM | ≤ 1000 nM |
| CC1CC1C1C=C(c2ccc(O)c(N3CC(=O)NS3(=O)=O)c2F)CN1 (stereo not drawn) [Compound 117, 5-(2-fluoro-6-hydroxy-3-(5-(2-methylcyclopropyl)-2,5-dihydro-1H-pyrrol-3-yl)phenyl)-1,2,5-thiadiazolidin-3-one 1,1-dioxide] | ≤ 1000 nM | ≤ 1000 nM |
| O=C1CN(c2c(O)ccc(C3=C[C@@H](C=CC4CC4)NC3)c2F)S(=O)(=O)N1 (single isomer, unassigned) [Compound 102, (R,E)-5-(3-(5-(2-cyclopropylvinyl)-2,5-dihydro-1H-pyrrol-3-yl)-2-fluoro-6-hydroxyphenyl)-1,2,5-thiadiazolidin-3-one 1,1-dioxide or (R,Z)-5-(3-(5-(2-cyclopropylvinyl)-2,5-dihydro-1H-pyrrol-3-yl)-2-fluoro-6-hydroxyphenyl)-1,2,5-thiadiazolidin-3-one 1,1-dioxide] | ≤ 1000 nM | ≤ 1000 nM |
| O=C1CN(c2c(O)cc(C3=CCCNC3)cc2F)S(=O)(=O)N1 [Compound 132, 5-(2-fluoro-6-hydroxy-4-(1,2,5,6-tetrahydropyridin-3-yl)phenyl)-1,2,5-thiadiazolidin-3-one 1,1-dioxide] | ≤ 1000 nM | ≤ 1000 nM |
| N#CCC1C=C(c2ccc(O)c(N3CC(=O)NS3(=O)=O)c2F)CN1 (stereo not drawn) [Compound 107, 2-(4-(3-(1,1-dioxido-4-oxo-1,2,5-thiadiazolidin-2-yl)-2-fluoro-4-hydroxyphenyl)-2,5-dihydro-1H-pyrrol-2-yl)acetonitrile] | ≤ 1000 nM | ≤ 1000 nM |

Continued, values first:

| IC50 (PTPN2) | IC50 (PTP1B) | Structure (SMILES) |
| --- | --- | --- |
| ≤ 1000 nM | ≤ 1000 nM | CC(C)C(=O)OCOc1ccc(C2=C[C@@H](CCC3CCC3)NC2)c(F)c1N1CC(=O)NS1(=O)=O [Compound 160, (R)-(4-(5-(2-cyclobutylethyl)-2,5-dihydro-1H-pyrrol-3-yl)-2-(1,1-dioxido-4-oxo-1,2,5-thiadiazolidin-2-yl)-3-fluorophenoxy)methyl isobutyrate] |
| > 1000 nM | ≤ 1000 nM | CC(C)CC[C@H]1C=C(c2ccc(O)c(N3CC(=O)NS3(=O)=O)c2F)CN1C(=O)O[C@H](C)OC(=O)C1CCCC1 [Compound 159, (R)-1-((cyclopentanecarbonyl)oxy)ethyl (S)-4-(3-(1,1-dioxido-4-oxo-1,2,5-thiadiazolidin-2-yl)-2-fluoro-4-hydroxyphenyl)-2-isopentyl-2,5-dihydro-1H-pyrrole-1-carboxylate] |
| ≤ 1000 nM | ≤ 1000 nM | CC(C)C(=O)OC(OC(=O)N1CC(c2ccc(O)c(N3CC(=O)NS3(=O)=O)c2F)=C[C@H]1CCC1CCC1)C(C)C (stereo partly drawn) [Compound 150, 1-(isobutyryloxy)-2-methylpropyl (2R)-2-(2-cyclobutylethyl)-4-(3-(1,1-dioxido-4-oxo-1,2,5-thiadiazolidin-2-yl)-2-fluoro-4-hydroxyphenyl)-2,5-dihydro-1H-pyrrole-1-carboxylate] |
| ≤ 1000 nM | ≤ 1000 nM | CC(C)C(=O)O[C@H](C)OC(=O)N1CC(c2ccc(O)c(N3CC(=O)NS3(=O)=O)c2F)=C[C@@H]1CCC1CC1 [Compound 155, (S)-1-(isobutyryloxy)ethyl (S)-2-(2-cyclopropylethyl)-4-(3-(1,1-dioxido-4-oxo-1,2,5-thiadiazolidin-2-yl)-2-fluoro-4-hydroxyphenyl)-2,5-dihydro-1H-pyrrole-1-carboxylate] |
| ≤ 1000 nM | ≤ 1000 nM | CC(C)C(=O)O[C@@H](C)OC(=O)N1CC(c2ccc(O)c(N3CC(=O)NS3(=O)=O)c2F)=C[C@@H]1CCC1CC1 [Compound 151, (R)-1-(isobutyryloxy)ethyl (S)-2-(2-cyclopropylethyl)-4-(3-(1,1-dioxido-4-oxo-1,2,5-thiadiazolidin-2-yl)-2-fluoro-4-hydroxyphenyl)-2,5-dihydro-1H-pyrrole-1-carboxylate] |

— US20260109694A1, “HETEROCYCLIC COMPOUNDS AND USES THEREOF” (Kumquat Biosciences Inc., priority 2023, published 2026)
